# Earlier results in PubChem BioAssay AID1259409 (Chemical Carcinogenesis Research Information System (CCRIS), 2018).
# System: rodent chemically induced tumor inhibition, incidence and multiplicity
# Test: CCRIS tumor inhibitor studies
# Conditions: Promoter: NONE USED
structure (smiles),measurement,setting,value
O=C(/C=C/c1ccccc1)c1ccccc1O,"tumour outcome (control, treated, inhibition, significance)","Carcinogen: 4-NITROQUINOLINE-1-OXIDE, 56-57-5, Dose [Inhibitor]: 0, 500 PPM IN DIET FOR 10 WK BEGINNING 1 WK PRIOR TO CARCINOGEN DOSE (STUDY DURATION: 32 WK), Route [Inhibitor]: ORAL, Species: RAT, Strain/Sex: F344/MALE, Target Tissue: Type of Lesion: TONGUE: CARCINOMA, Dose [Carcinogen]: 20 PPM IN DRINKING WATER FOR 8 WK","9/15 (60%), 2/16 (13%), 78%, p<0.05"
same,"tumour outcome (control, treated, inhibition, significance)","Carcinogen: 4-NITROQUINOLINE-1-OXIDE, 56-57-5, Dose [Inhibitor]: 0, 500 PPM IN DIET FOR 10 WK BEGINNING 1 WK PRIOR TO CARCINOGEN DOSE (STUDY DURATION: 32 WK), Route [Inhibitor]: ORAL, Species: RAT, Strain/Sex: F344/MALE, Target Tissue: Type of Lesion: TONGUE: PAPILLOMA, Dose [Carcinogen]: 20 PPM IN DRINKING WATER FOR 8 WK","4/15 (27%), 1/16 (6%), 78%, not significant"
same,"tumour outcome (control, treated, inhibition, significance)","Carcinogen: 4-NITROQUINOLINE-1-OXIDE, 56-57-5, Dose [Inhibitor]: 0, 500 PPM IN DIET FOR 22 WK BEGINNING 1 WK POST CARCINOGEN TREATMENT (STUDY DURATION: 32 WK), Route [Inhibitor]: ORAL, Species: RAT, Strain/Sex: F344/MALE, Target Tissue: Type of Lesion: TONGUE: CARCINOMA, Dose [Carcinogen]: 20 PPM IN DRINKING WATER FOR 8 WK","9/15 (60%), 3/16 (19%), 68%, p<0.05"
same,"tumour outcome (control, treated, inhibition, significance)","Carcinogen: 4-NITROQUINOLINE-1-OXIDE, 56-57-5, Dose [Inhibitor]: 0, 500 PPM IN DIET FOR 22 WK BEGINNING 1 WK POST CARCINOGEN TREATMENT (STUDY DURATION: 32 WK), Route [Inhibitor]: ORAL, Species: RAT, Strain/Sex: F344/MALE, Target Tissue: Type of Lesion: TONGUE: PAPILLOMA, Dose [Carcinogen]: 20 PPM IN DRINKING WATER FOR 8 WK","4/15 (27%), 0/16 (0%), 100%, p<0.05"
Oc1ccccc1,"tumour outcome (control, treated, inhibition, significance)","Carcinogen: BENZO[A]PYRENE, 50-32-8, Dose [Inhibitor]: 0.03 MMOL/G OF DIET STARTING 8 D BEFORE AND CONTINUING THROUGH 3 D AFTER LAST CARCINOGEN TREATMENT (STUDY DURATION: 148, Route [Inhibitor]: ORAL, Species: MOUSE, Strain/Sex: ICR/FEMALE, Target Tissue: Type of Lesion: FORESTOMACH: NEOPLASM, Dose [Carcinogen]: 1 MG IN 0.2 ML CORN OIL 2/WK FOR 4 WK","100%, 100%, 0%, not significant"
same,"tumour outcome (control, treated, inhibition, significance)","Carcinogen: BENZO[A]PYRENE, 50-32-8, Dose [Inhibitor]: 3 MG IN 0.1 ML ACETONE 3/WK ADMINISTERED SIMULTANEOUSLY WITH CARCINOGEN FOR DU RATION OF STUDY (STUDY DURATION: 368 D), Route [Inhibitor]: DERMAL, Species: MOUSE, Strain/Sex: ICR/FEMALE, Target Tissue: Type of Lesion: SKIN: PAPILLOMA, Dose [Carcinogen]: 5 UG IN 0.1 ML ACETONE 3/WK FOR DURATION OF STUDY","14/50 (28%), 7/50 (14%), 50%, not calculated"
same,"tumour outcome (control, treated, inhibition, significance)","Carcinogen: BENZO[A]PYRENE, 50-32-8, Dose [Inhibitor]: 3 MG IN 0.1 ML ACETONE 3/WK ADMINISTERED SIMULTANEOUSLY WITH CARCINOGEN FOR DURATION OF STUDY (STUDY DURATION: 368 D), Route [Inhibitor]: DERMAL, Species: MOUSE, Strain/Sex: ICR/FEMALE, Target Tissue: Type of Lesion: SKIN: SQUAMOUS CARCINOMA, Dose [Carcinogen]: 5 UG IN 0.1 ML ACETONE 3/WK FOR DURATION OF STUDY","10/50 (20%), 3/50 (6%), 70%, not calculated"
O.O.O.O.O.[Cd+2].[Cd+2].[Cl-].[Cl-].[Cl-].[Cl-],"tumour outcome (control, treated, inhibition, significance)","Carcinogen: NITROSODIETHYLAMINE, 55-18-5, Dose [Inhibitor]: 0, 1000 PPM IN DRINKING WATER BEGINNING 2 WK POST CARCINOGEN DOSE AND CONTINUING FOR DURATION OF STUDY (STUDY DURATION:, Route [Inhibitor]: ORAL, Species: MOUSE, Strain/Sex: B6C3F1/MALE, Target Tissue: Type of Lesion: LIVER: TUMOR, Dose [Carcinogen]: 5 MG/ML IN TRICAPRYLIN ONCE AT 5 WK OF AGE","22/25 (88%), 2/25 (8%), 91%, p<0.05"
same,"tumour outcome (control, treated, inhibition, significance)","Carcinogen: NITROSODIETHYLAMINE, 55-18-5, Dose [Inhibitor]: 0, 1000 PPM IN DRINKING WATER BEGINNING 2 WK POST CARCINOGEN DOSE AND CONTINUING FOR DURATION OF STUDY (STUDY DURATION:, Route [Inhibitor]: ORAL, Species: MOUSE, Strain/Sex: B6C3F1/MALE, Target Tissue: Type of Lesion: LUNG: TUMOR, Dose [Carcinogen]: 5 MG/ML IN TRICAPRYLIN ONCE AT 5 WK OF AGE","100%, 94%, 6%, not significant"
same,"tumour outcome (control, treated, inhibition, significance)","Carcinogen: NITROSODIETHYLAMINE, 55-18-5, Dose [Inhibitor]: 0, 1000 PPM IN DRINKING WATER BEGINNING 4 WK POST CARCINOGEN DOSE AND CONTINUING FOR DURATION OF STUDY (STUDY DURATION:, Route [Inhibitor]: ORAL, Species: MOUSE, Strain/Sex: B6C3F1/MALE, Target Tissue: Type of Lesion: LIVER: TUMOR, Dose [Carcinogen]: 5 MG/ML IN TRICAPRYLIN ONCE AT 5 WK OF AGE","22/25 (88%), 1/25 (4%), 95%, p<0.05"
same,"tumour outcome (control, treated, inhibition, significance)","Carcinogen: NITROSODIETHYLAMINE, 55-18-5, Dose [Inhibitor]: 0, 1000 PPM IN DRINKING WATER BEGINNING 4 WK POST CARCINOGEN DOSE AND CONTINUING FOR DURATION OF STUDY (STUDY DURATION:, Route [Inhibitor]: ORAL, Species: MOUSE, Strain/Sex: B6C3F1/MALE, Target Tissue: Type of Lesion: LUNG: TUMOR, Dose [Carcinogen]: 5 MG/ML IN TRICAPRYLIN ONCE AT 5 WK OF AGE","100%, 94%, 6%, not significant"
same,"tumour outcome (control, treated, inhibition, significance)","Carcinogen: NITROSODIETHYLAMINE, 55-18-5, Dose [Inhibitor]: 0, 1000 PPM IN DRINKING WATER BEGINNING 8 WK POST CARCINOGEN DOSE AND CONTINUING FOR DURATION OF STUDY (STUDY DURATION:, Route [Inhibitor]: ORAL, Species: MOUSE, Strain/Sex: B6C3F1/MALE, Target Tissue: Type of Lesion: LIVER: TUMOR, Dose [Carcinogen]: 5 MG/ML IN TRICAPRYLIN ONCE AT 5 WK OF AGE","22/25 (88%), 1/25 (4%), 95%, p<0.05"
same,"tumour outcome (control, treated, inhibition, significance)","Carcinogen: NITROSODIETHYLAMINE, 55-18-5, Dose [Inhibitor]: 0, 1000 PPM IN DRINKING WATER BEGINNING 8 WK POST CARCINOGEN DOSE AND CONTINUING FOR DURATION OF STUDY (STUDY DURATION:, Route [Inhibitor]: ORAL, Species: MOUSE, Strain/Sex: B6C3F1/MALE, Target Tissue: Type of Lesion: LUNG: TUMOR, Dose [Carcinogen]: 5 MG/ML IN TRICAPRYLIN ONCE AT 5 WK OF AGE","100%, 89%, 11%, not significant"
same,"tumour outcome (control, treated, inhibition, significance)","Carcinogen: NITROSODIETHYLAMINE, 55-18-5, Dose [Inhibitor]: 0, 1000 PPM IN DRINKING WATER BEGINNING 16 WK POST CARCINOGEN DOSE AND CONTINUING FOR DURATION OF STUDY (STUDY DURATION:, Route [Inhibitor]: ORAL, Species: MOUSE, Strain/Sex: B6C3F1/MALE, Target Tissue: Type of Lesion: LIVER: TUMOR, Dose [Carcinogen]: 5 MG/ML IN TRICAPRYLIN ONCE AT 5 WK OF AGE","22/25 (88%), 2/25 (8%), 91%, p<0.05"
same,"tumour outcome (control, treated, inhibition, significance)","Carcinogen: NITROSODIETHYLAMINE, 55-18-5, Dose [Inhibitor]: 0, 1000 PPM IN DRINKING WATER BEGINNING 16 WK POST CARCINOGEN DOSE AND CONTINUING FOR DURATION OF STUDY (STUDY DURATION:, Route [Inhibitor]: ORAL, Species: MOUSE, Strain/Sex: B6C3F1/MALE, Target Tissue: Type of Lesion: LUNG: TUMOR, Dose [Carcinogen]: 5 MG/ML IN TRICAPRYLIN ONCE AT 5 WK OF AGE","100%, 72%, 28%, p<0.05"
same,"tumour outcome (control, treated, inhibition, significance)","Carcinogen: NITROSODIETHYLAMINE, 55-18-5, Dose [Inhibitor]: 0, 1000 PPM IN DRINKING WATER BEGINNING 32 WK POST CARCINOGEN DOSE AND CONTINUING FOR DURATION OF STUDY (STUDY DURATION:, Route [Inhibitor]: ORAL, Species: MOUSE, Strain/Sex: B6C3F1/MALE, Target Tissue: Type of Lesion: LIVER: TUMOR, Dose [Carcinogen]: 5 MG/ML IN TRICAPRYLIN ONCE AT 5 WK OF AGE","22/25 (88%), 6/24 (25%), 72%, p<0.05"
same,"tumour outcome (control, treated, inhibition, significance)","Carcinogen: NITROSODIETHYLAMINE, 55-18-5, Dose [Inhibitor]: 0, 1000 PPM IN DRINKING WATER BEGINNING 32 WK POST CARCINOGEN DOSE AND CONTINUING FOR DURATION OF STUDY (STUDY DURATION:, Route [Inhibitor]: ORAL, Species: MOUSE, Strain/Sex: B6C3F1/MALE, Target Tissue: Type of Lesion: LUNG: TUMOR, Dose [Carcinogen]: 5 MG/ML IN TRICAPRYLIN ONCE AT 5 WK OF AGE","100%, 96%, 4%, not significant"
